Data as given in patent US20150210624A1, “DEUTERATED 4-HYDROXYBUTYRIC ACID ANALOGS” (Concert Pharmaceuticals, Inc., priority 2012, published 2015).
Where a name gives a salt, the structure may show the parent alone.

Columns and labels:
[1] = In vivo pharmacokinetic study in rats, IV and PO dosing (Example 6); conditions: rat; for AUC(0-inf) / clearance / half-life / Vd / Cmax / Tmax / concentration at 4 hr / bioavailability / concentration at 2 hr: plasma; for Vd: read-out: Vz; for concentration at 4 hr: Cmin at 4 hr; for bioavailability: 200 mg/kg, PO vs IV AUC0-∞
Procedure: The pharmacokinetics of exemplary compounds was determined by comparison with 4-hydroxybutyric acid by dosing the compounds in rats according to the following study design and sampling procedure.
The results of the in vivo studies are disclosed in the following table (Table 2): […]

[2] = In vivo pharmacokinetic study in rats, oral dosing (Example 7); conditions: rat, 200 mg/kg PO; for AUC(0-inf) / Cmax / Tmax / half-life: in vivo, mean; for AUC0-∞ value relative to 4-hydroxybutyric acid, sodium salt: sodium salts
Procedure: In a separate study, the pharmacokinetics of exemplary compounds IV-a, IV-b and IV-d was determined by comparison with 4-hydroxybutyric acid by dosing the compounds in rats orally. The study design was the same as for Example 6, except that sampling time points were as follows: predose, 5 min, 15 min, 30 min, 1 hour, 2 hours, 3 hours, 4 hours, and 5 hours (the 5 hour levels were not included in the for PK calculations). The results of the in vivo studies are disclosed in the following table (Table 3): […]

[3] = in humans; cited from earlier work
[4] = 200 mg/kg IV, mean, calculated up to 2 hr
[5] = 200 mg/kg PO, mean, calculated up to 4 hr
[6] = 200 mg/kg IV, mean, Cmin at 2 hr

Row | SMILES | AUC(0-inf) ([1]; 200 mg/kg IV, mean) [µg·h/mL] | clearance ([1]; 200 mg/kg IV, mean) [mL/min/kg] | half-life [1, 4] [min] | Vd ([1]; 200 mg/kg IV, mean) [L/kg] | AUC(0-inf) ([1]; 200 mg/kg PO, mean) [µg·h/mL] | Cmax ([1]; 200 mg/kg PO, mean) [µg/mL] | Tmax ([1]; 200 mg/kg PO, mean) [min] | concentration at 4 hr ([1]; 200 mg/kg PO, mean) [µg/mL] | half-life [1, 5] [min] | bioavailability [1] [%] | AUC(0-inf) [2] [µg·h/mL] | Cmax [2] [µg/mL] | Tmax [2] [min] | half-life [2] [min] | concentration at 2 hr [1, 6] [µg/mL] | AUC0-∞ fold versus 4-hydroxybutyric acid, sodium salt ([1]; 200 mg/kg PO) | AUC0-∞ fold versus 4-hydroxybutyric acid, sodium salt [2] | Cmax fold versus 4-hydroxybutyric acid, sodium salt [2] | AUC0-∞ value relative to 4-hydroxybutyric acid, sodium salt [2] | also measured
1 | O=C(O)CCCO [4-hydroxybutyric acid, sodium salt, sodium salt of 4-hydroxybutyric acid, reference compound] | 427 | 8 | 15.6 | 0.2 | 170 | 150 | 30 | 2 | 36.6 | 40 | 165 | 94 | 47.4 | 60.6 |  |  |  |  |  | Cmin [1, 6]: 8′ ug/mL; half life [3]: 30 to 60 min
2 | [2H]C([2H])(O)CC([2H])([2H])C(=O)[O-].[Na+] [IV-b, sodium salt, Sodium 2,2,4,4-d4-4-hydroxybutanoate] | 651 | 5 | 37.8 | 0.3 | 260 | 151 | 37.8 | 5 | 56.4 | 40 | 407 | 201 | 90 | 27.6 | 76 | (+1.5X) | (2.5X) | (2.1X) | considerably increased | pharmacokinetic stability relative to 4-hydroxybutyric acid, sodium salt ([1]; from AUC0-∞ and t1/2 following IV administration): considerably increased
3 | [2H]C([2H])(O)C([2H])([2H])C([2H])([2H])C(=O)O [IV-d, sodium salt] |  |  |  |  |  |  |  |  |  |  | 404 | 188 | 100 | 27.6 |  |  | (2.4X) | (2.0X) | considerably increased | 
4 | [2H]C([2H])(O)CCC(=O)O [IV-a, sodium salt] |  |  |  |  |  |  |  |  |  |  | 335 | 168 | 70.2 | 28.8 |  |  | (2.0X) | (1.8X) | considerably increased | 
5 | [2H]C([2H])(CCO)C(=O)[O-].[Na+] [sodium 2,2-dideutero-4-hydroxybutanoate] | 476 | 7 | 19.8 | 0.2 | 193 | 153 | 37.8 | 1 | 35.4 | 41 |  |  |  |  | 19 | (+1.1X) |  |  |  | 
